Experimental data as given in ChEMBL document CHEMBL1201862, “PubChem BioAssay data set” (2004).
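96-well plates; 48 h exposure; 5 concentrations. Endpoints by linear interpolation between flanking doses. Not reached: highest tested concentration assigned. GI50 = concentration required for 50% inhibition of growth.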 Active and inactive are the calls of the source. Rule as the data show it: active = GI50 up to about 1.1 µM and inactive = higher.

Columns and labels:
Experiment in all cases: inhibition of tumour cell growth, NCI panel, 48 h
A498 = system: A498
CAKI-1 = system: CAKI-1
CCRF-CEM = system: CCRF-CEM
COLO 205 = system: COLO 205
DMS-273 = system: DMS-273
HCC 2998 = system: HCC 2998
HCT-15 = system: HCT-15
NCI-H460 = system: NCI-H460
OVCAR-3 = system: OVCAR-3
SF-295 = system: SF-295
SK-MEL-5 = system: SK-MEL-5
SK-OV-3 = system: SK-OV-3
SN12C = system: SN12C
SNB-19 = system: SNB-19
SR = system: SR
UACC-257 = system: UACC-257
BT-549 = system: BT-549
DU-145 = system: DU-145
MDA-MB-231 = system: MDA-MB-231
NCI/ADR-RES = system: NCI/ADR-RES

| SMILES | GI50 (A498) | GI50 (CAKI-1) | GI50 (CCRF-CEM) | GI50 (COLO 205) | GI50 (DMS-273) | GI50 (HCC 2998) | GI50 (HCT-15) [µM] | GI50 (NCI-H460) | GI50 (OVCAR-3) | GI50 (SF-295) | GI50 (SK-MEL-5) | GI50 (SK-OV-3) | GI50 (SN12C) | GI50 (SNB-19) | GI50 (SR) | GI50 (UACC-257) | GI50 (BT-549) | GI50 (DU-145) | GI50 (MDA-MB-231) | GI50 (NCI/ADR-RES) |
| --- | --- | --- | --- | --- | --- | --- | --- | --- | --- | --- | --- | --- | --- | --- | --- | --- | --- | --- | --- | --- |
| O=C1Cc2ccccc2CCc2ccccc21 | > 100 µM (inactive) | > 100 µM (inactive) | > 100 µM (inactive) | > 100 µM (inactive) | > 100 µM (inactive) | > 100 µM (inactive) | > 100 | > 100 µM (inactive) | > 100 µM (inactive) | 83 µM (inactive) | > 100 µM (inactive) | > 100 µM (inactive) | > 100 µM (inactive) | > 100 µM (inactive) | > 100 µM (inactive) | > 100 µM (inactive) | – | – | – | – |
| O=[N+]([O-])c1ccc(-c2ccc(C3=Nn4c(nnc4-c4ccc(Cl)cc4)SC3)o2)cc1 | 92.7 µM (inactive) | > 100 µM (inactive) | > 100 µM (inactive) | > 100 µM (inactive) | 67.9 µM (inactive) | > 100 µM (inactive) | > 92.5 | > 73.3 µM (inactive) | 94.8 µM (inactive) | 26.5 µM (inactive) | > 100 µM (inactive) | > 82.4 µM (inactive) | 97.9 µM (inactive) | 30.3 µM (inactive) | > 100 µM (inactive) | > 100 µM (inactive) | – | – | – | – |
| NC(=O)CCC(NC(=O)Cc1ccccc1)C(=O)O (stereo not drawn) | > 2470 µM (inactive) | 1280 µM (inactive) | 2320 µM (inactive) | > 2470 µM (inactive) | > 2470 µM (inactive) | > 2470 µM (inactive) | > 2470 | – | > 2470 µM (inactive) | 1740 µM (inactive) | > 2470 µM (inactive) | > 2470 µM (inactive) | > 2470 µM (inactive) | > 2470 µM (inactive) | > 2470 µM (inactive) | – | – | – | – | – |
| CCOC(=O)C1=C(O)C(=O)c2c(OC)ccc(OC)c2C1=O | > 100 µM (inactive) | > 100 µM (inactive) | > 100 µM (inactive) | > 100 µM (inactive) | > 100 µM (inactive) | > 100 µM (inactive) | > 100 | > 100 µM (inactive) | > 100 µM (inactive) | > 100 µM (inactive) | > 100 µM (inactive) | > 100 µM (inactive) | > 100 µM (inactive) | > 100 µM (inactive) | > 100 µM (inactive) | > 100 µM (inactive) | – | – | – | – |
| CC1=C(NC(=O)/C(=N/NC(=S)NN)C2C(=O)CC(C)(C)CC2=O)C(=O)c2ccccc2C1=O | 20.9 µM (inactive) | 20.7 µM (inactive) | 3.56 µM (inactive) | 12.5 µM (inactive) | 6.21 µM (inactive) | 10.8 µM (inactive) | 6 | 17.7 µM (inactive) | 2.3 µM (inactive) | 13.7 µM (inactive) | 2.15 µM (inactive) | 19.8 µM (inactive) | 7.4 µM (inactive) | 13 µM (inactive) | 3.61 µM (inactive) | 3.43 µM (inactive) | – | – | – | – |
| Oc1ccc(-c2c3ccccc3c(-c3ccc(O)cc3)c3ccccc23)cc1 | > 100 µM (inactive) | > 100 µM (inactive) | > 100 µM (inactive) | > 100 µM (inactive) | > 100 µM (inactive) | > 100 µM (inactive) | > 100 | > 100 µM (inactive) | > 100 µM (inactive) | 84.1 µM (inactive) | > 100 µM (inactive) | > 100 µM (inactive) | > 100 µM (inactive) | > 100 µM (inactive) | 64.3 µM (inactive) | > 100 µM (inactive) | – | – | – | – |
| CC(=O)CC(N)=O | > 100 µM (inactive) | > 100 µM (inactive) | > 100 µM (inactive) | > 100 µM (inactive) | > 100 µM (inactive) | > 100 µM (inactive) | > 100 | > 100 µM (inactive) | > 100 µM (inactive) | > 100 µM (inactive) | > 100 µM (inactive) | > 100 µM (inactive) | > 100 µM (inactive) | > 100 µM (inactive) | > 100 µM (inactive) | > 100 µM (inactive) | – | – | – | – |
| O=C1Oc2cc3c(c4cccc1c24)OCN(c1ccccc1)C3 | > 100 µM (inactive) | 78.3 µM (inactive) | 29.1 µM (inactive) | > 100 µM (inactive) | > 100 µM (inactive) | > 100 µM (inactive) | 79.1 | > 100 µM (inactive) | > 100 µM (inactive) | > 100 µM (inactive) | > 100 µM (inactive) | > 100 µM (inactive) | > 100 µM (inactive) | > 100 µM (inactive) | 44.8 µM (inactive) | > 100 µM (inactive) | – | – | – | – |
| O=C(c1nc2ccccc2nc1O)C(O)c1ccccc1 (stereo not drawn) | 39.5 µM (inactive) | > 100 µM (inactive) | 32.7 µM (inactive) | > 100 µM (inactive) | 60.3 µM (inactive) | 53.7 µM (inactive) | 96.2 | > 100 µM (inactive) | > 100 µM (inactive) | > 100 µM (inactive) | > 100 µM (inactive) | > 100 µM (inactive) | > 100 µM (inactive) | > 100 µM (inactive) | 86.1 µM (inactive) | > 100 µM (inactive) | – | – | – | – |
| CCOC(=O)CSc1nnc(C(Sc2nc(-c3ccccc3)c(-c3ccccc3)[nH]2)C(C)C)n1-c1ccccc1 (stereo not drawn) | > 10 µM (inactive) | – | 14.3 µM (inactive) | 17 µM (inactive) | > 10 µM (inactive) | 19.2 µM (inactive) | 18.1 | 17.5 µM (inactive) | > 10 µM (inactive) | > 10 µM (inactive) | > 10 µM (inactive) | > 10 µM (inactive) | 15.9 µM (inactive) | 21.9 µM (inactive) | 31.2 µM (inactive) | 14 µM (inactive) | 24.5 µM (inactive) | 39.6 µM (inactive) | 24.4 µM (inactive) | 26.9 µM (inactive) |
| CC(C)CN1CC(C)C(=O)NC1=O (stereo not drawn) | > 100 µM (inactive) | > 100 µM (inactive) | > 100 µM (inactive) | > 100 µM (inactive) | > 100 µM (inactive) | – | – | > 100 µM (inactive) | – | > 100 µM (inactive) | > 100 µM (inactive) | > 100 µM (inactive) | > 100 µM (inactive) | > 100 µM (inactive) | > 100 µM (inactive) | > 100 µM (inactive) | – | – | – | – |
| COc1c(CC(C)=O)c2ccccc2n1C(C)=O | > 100 µM (inactive) | > 100 µM (inactive) | > 100 µM (inactive) | > 100 µM (inactive) | > 100 µM (inactive) | > 100 µM (inactive) | > 100 | > 100 µM (inactive) | > 100 µM (inactive) | > 100 µM (inactive) | – | > 100 µM (inactive) | > 100 µM (inactive) | > 100 µM (inactive) | > 100 µM (inactive) | > 100 µM (inactive) | – | – | – | – |
| COC1C2c3ccccc3C(C#N)(Cc3ccc4c(c32)OCO4)N1C(=O)c1ccccc1 (stereo not drawn) | – | – | 25.4 µM (inactive) | 16.7 µM (inactive) | 5.65 µM (inactive) | 37.9 µM (inactive) | 17.1 | 25.9 µM (inactive) | 42.5 µM (inactive) | > 100 µM (inactive) | 3.76 µM (inactive) | 35.3 µM (inactive) | > 100 µM (inactive) | 46.6 µM (inactive) | 14.3 µM (inactive) | 26.1 µM (inactive) | – | – | – | – |
| CN(CCO)c1nc(N)cc(=O)[nH]1 | – | > 100 µM (inactive) | > 100 µM (inactive) | > 100 µM (inactive) | > 100 µM (inactive) | > 100 µM (inactive) | > 100 | > 100 µM (inactive) | > 100 µM (inactive) | > 100 µM (inactive) | > 100 µM (inactive) | > 100 µM (inactive) | > 100 µM (inactive) | > 100 µM (inactive) | > 100 µM (inactive) | > 100 µM (inactive) | – | – | – | – |
| NNC(=O)CCC(=O)Nc1cc(Cl)c(Cl)cc1Cl | 38.3 µM (inactive) | > 100 µM (inactive) | > 100 µM (inactive) | > 100 µM (inactive) | > 100 µM (inactive) | > 100 µM (inactive) | > 100 | > 100 µM (inactive) | 75.2 µM (inactive) | > 100 µM (inactive) | > 100 µM (inactive) | > 100 µM (inactive) | > 100 µM (inactive) | > 100 µM (inactive) | 0.607 µM (active) | > 100 µM (inactive) | – | – | – | – |
| Cc1ccc(NC(=O)CC2C(=O)Nc3ccccc3S2(=O)=O)c(C)c1 (stereo not drawn) | 14.8 µM (inactive) | 8.79 µM (inactive) | 16.4 µM (inactive) | – | 10.7 µM (inactive) | 13.4 µM (inactive) | 8.32 | 16 µM (inactive) | 14.1 µM (inactive) | 25.5 µM (inactive) | 4.78 µM (inactive) | – | 18.6 µM (inactive) | 14 µM (inactive) | 1.8 µM (inactive) | 21.6 µM (inactive) | – | – | – | – |
| C[C@@H]1C[C@@H](O)[C@]2(O)O[C@@H]3C[C@@]4(C=O)[C@@H](CC[C@@H]5[C@@H]4CC[C@]4(C)[C@@H](C6=CC(=O)OC6)CC[C@]54O)C[C@H]3O[C@@H]2O1 [CALACTIN] | 0.0208 µM (active) | 0.01 µM (active) | 0.00371 µM (active) | 0.0221 µM (active) | 0.00455 µM (active) | 0.161 µM (active) | 0.0162 | 0.00464 µM (active) | 0.00169 µM (active) | 0.0133 µM (active) | 0.0101 µM (active) | 0.0118 µM (active) | 0.00301 µM (active) | 0.0219 µM (active) | 0.00275 µM (active) | 0.0213 µM (active) | 0.0379 µM (active) | 0.0171 µM (active) | 0.0153 µM (active) | 0.0306 µM (active) |
